Reference: patent US20070123556A1, “Treatment with Sigma Receptor Agonists Post-Stroke” (UNIVERSITY OF SOUTH FLORIDA, priority 2005, published 2007)

Tests used:
[1] = test system: rats subjected to MCAO; test: isolectin IB4 labeling, activated microglia/macrophages after MCAO; assay type: in vivo, rat; conditions: 15 mg/kg DTG from 24 h post-MCAO
Protocol: (§1) MCAO surgery was performed as previously reported by Vendrame et al (Vendrame et al., 2004) and originally described by Longa et al (Longa et al., 1989). Laser Doppler Radar (LDR) was used to monitor decrease in blood perfusion which indicates successful occlusion (Moor Instruments Ltd, Devon, England). A 2 mm diameter hole was drilled into the right parietal bone (1 mm posterior and 4 mm lateral from bregma), and a guide screw was set. The LDR probe (MP10M200ST; Moor) was inserted into the guide screw, and the tip of the probe was placed against the pial surface of the brain. […] For MCAO, the embolus (4 cm long, 6 lb test monofilament) was advanced up the internal carotid artery into the middle cerebral artery and tied off at the internal/external carotid junction to produce permanent occlusion. The rat was then sutured, given a 1 ml subcutaneous injection of saline, and allowed to wake in a fresh cage.
(§2) Rats were randomly assigned to 1 of 7 groups: (1) MCAO (n=7); (2) MCAO and 15 mg/kg DTG in a 3% lactic acid vehicle (n=11); (3) MCAO and 30 mg/kg DTG (n=16); (4) MCAO and bi-daily injections of 30 mg/kg DTG (n=12); (5) MCAO and 10 mg/kg N-[2-(3,4-dichlorophenyl)ethyl]-N-methyl-2-(dimethylamino)ethylamine (BD 1047) (n=4); (6) MCAO and 10 mg/kg BD1047+30 mg/kg DTG (n=4); (7) sham/MCAO and 15 mg/kg DTG (n=4). […]

[2] = test system: rats subjected to MCAO; test: NeuN immunostaining, viable neurons after MCAO; assay type: in vivo, rat; conditions: 15 mg/kg
Protocol: as §1, with “cage. […]” for “cage.”
[…]. […] The area of the contralateral side of the brain tissue was measured and used to compensate for possible edema in ipsilateral hemispheres. NeuN immunostaining was analyzed using the NIH Image J software to count NeuN positive cells by particle analysis in the ipsilateral hemispheres of the corticalustriatal and corticaluhippocampal regions of the rat brains at a magnification of 10×.

[3] = test system: rats subjected to MCAO; test: Fluoro-Jade infarct area after MCAO; assay type: in vivo, rat
[4] = test system: rats subjected to MCAO; test: GFAP immunostaining, reactive astrocytes after MCAO; assay type: in vivo, rat; conditions: 15 mg/kg DTG from 24 h post-MCAO
Protocol: as §1, §2

[5] = test system: glutamate receptors; conditions: 100 μM; cited from earlier work
[6] = test system: ASIC channels; test: low-pH (pH 6.0) evoked ASIC-mediated increases in [Ca2+]i; assay type: cell-based, rat; conditions: 100 μM, pH 6.0

Cc1ccccc1NC(=N)Nc1ccccc1C [DTG, 1,3-di-o-tolyguanidine]
isolectin IB4-positive cells in the infarct zone [1]: fails to elicit these elevations | increase of surviving NeuN cells in the infarct zone relative to MCAO-only animals ([2]; 24 hr post stroke): > 83% | number of viable neurons (NeuN) in ipsilateral infarct zones ([2]; cortical/striatal and cortical/hippocampal, p<0.001): significantly increased | decrease of Fluoro-Jade staining relative to untreated MCAO animals ([3]; 15 mg/kg, 24 hr post stroke): > 85% | infarct area (Fluoro-Jade labeled) ([3]; cortical/hippocampal region, 15 mg/kg DTG from 24 h post-MCAO (MCAO-only 29±3%)): 2±2% | infarct area (Fluoro-Jade labeled) ([3]; cortical/striatal region, 15 mg/kg DTG from 24 h post-MCAO (MCAO-only 44±5%)): 6±4% | level of GFAP expression in brain sections [4]: marked decrease | inhibition of calcium elevations evoked by glutamate application [5]: not | effect on low-pH evoked transient increases in [Ca2+]i [6]: inhibits
